Structures can show the parent of a compound that is named as a salt.

T1 sequence (P50406 whole entry): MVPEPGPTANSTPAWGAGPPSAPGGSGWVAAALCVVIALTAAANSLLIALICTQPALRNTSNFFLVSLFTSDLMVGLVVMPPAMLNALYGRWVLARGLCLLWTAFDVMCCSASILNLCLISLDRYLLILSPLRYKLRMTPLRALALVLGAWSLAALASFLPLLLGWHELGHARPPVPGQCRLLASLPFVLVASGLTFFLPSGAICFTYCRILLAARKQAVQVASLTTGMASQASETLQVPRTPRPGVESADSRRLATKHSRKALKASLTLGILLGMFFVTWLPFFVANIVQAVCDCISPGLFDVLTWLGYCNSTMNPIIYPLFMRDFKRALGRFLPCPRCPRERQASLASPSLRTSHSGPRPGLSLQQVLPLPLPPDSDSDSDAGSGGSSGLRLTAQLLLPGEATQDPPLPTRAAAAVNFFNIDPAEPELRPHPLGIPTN

The first experiment concerns the target T1, human 5-HT6 receptor (Homo sapiens, UniProt P50406).
T1 construct: expressed in transfected cells; host or cells: HEK293
In words: 5-HT6 intrinsic activity assay (inhibition of 5-HT induced increase in cAMP). The settings on record: read-out: fKi. The experiment is classed as cell-based. The protocol:
Briefly, HEK293/5-HT6 cells were seeded in polylysine coated 96-well plates at a density of 25,000/well and grown in DMEM (Dulbecco's Modified Eagle Medium) (without phenol-red) containing 5% dialyzed Foetal Bovine Serum for 48 h at 37° C. in a 5% CO2 incubator. The medium was then aspirated and replaced by 0.1 mL assay medium (Hanks Balance Salt Solution containing 20 mM HEPES, 1.5 mM isobutylmethylxanthine and 1 mg/mL bovine serum albumin). After addition of test substances, 50 μl dissolved in assay medium, the cells were incubated for 10 min at 37° C. in a 5% CO2 incubator. The medium was again aspirated and the cAMP content was determined using a radioactive cAMP kit (Amersham Pharmacia Biotech, BIOTRAK RPA559).
Table 4. Functional in vitro data at the h-5-HT receptor (fKi). Data are expressed as fKi,=IC50/(1+[5HT]/EC50).
For `COc1ccc(C)cc1S(=O)(=O)Nc1cc(C2=CN3CCC2CC3)c2occc2c1` [Example 33, N-[7-(1-Aza-bicyclo[2.2.2]oct-2-en-3-yl)-benzofuran-5-yl]-2-methoxy-5-methylbenzenesulfonamide hydrochloride], the Ki is 20 nM. Same read-out and setting: as for `O=S(=O)(Nc1cc(-c2cncnc2)c2occc2c1)c1ccccc1` [Example 32, N-(7-Pyrimidin-5-yl-1-benzofuran-5-yl)benzenesulfonamide hydrochloride], the figure is 54 nM; as for `Fc1ccc(CNc2cc(N3CCNCC3)c3occc3c2)cc1F` [Example 12, N-(3,4-Difluorobenzyl)-7-piperazin-1-yl-1-benzofuran-5-amine hydrochloride], 87 nM. The same measure, in the same setting: in the case of `COc1ccc(C)cc1S(=O)(=O)Nc1cc(-c2ccncc2)c2occc2c1` [Example 28, 2-Methoxy-5-methyl-N-(7-pyridin-4-yl-1-benzofuran-5-yl)benzenesulfonamide] it was 66 nM; in that of `CNCCCN(C)c1cc(NS(=O)(=O)c2ccccc2)cc2ccoc12` [Example 1, N-(7-{Methyl[3-(methylamino)propyl]amino}-1-benzofuran-5-yl)benzenesulfonamide hydrochloride], 87 nM.

For a further experiment, the target named is T1, human 5-HT6 receptor. In words: 5-HT6 binding assay ([3H]-LSD competition, SPA, membranes of transfected HEK293 cells). To be noted: competitive binding, [3H]-LSD radioligand, Ki calculated from IC50 (Cheng).
As for `O=S(=O)(Nc1cccc2cc(C3=CN4CCC3CC4)oc12)c1ccccc1` [Example 36, N-[2-(1-Azabicyclo[2.2.2]oct-2-en-3-yl)-1-benzofuran-7-yl]benzenesulfonamide hydrochloride], the Ki is 20 nM.

As for `COc1ccc(C)cc1S(=O)(=O)Nc1cc(O[C@H]2CCNC[C@H]2F)c2occc2c1` (relative stereo) [Example 84, N-(7-{[cis-3-Fluoropiperidin-4-yl]oxy}-1-benzofuran-5-yl)-2-methoxy-5-methylbenzenesulfonamide hydrochloride], the Ki was 7.5 nM.

`O=S(=O)(Nc1cc(O[C@@H]2CCNC[C@H]2F)c2occc2c1)c1ccccc1C(F)(F)F` (relative stereo) [Example 87, N-(7-{[trans-3-Fluoropiperidin-4-yl]oxy}-1-benzofuran-5-yl)-2-(trifluoromethyl)benzenesulfonamide hydrochloride]: the Ki is 5.3 nM. On the same count and under the same terms, in the case of `O=S(=O)(Nc1cc(O[C@@H]2CCNC[C@H]2F)c2occc2c1)c1cc(F)ccc1Cl` (relative stereo) [Example 91, 2-Chloro-5-fluoro-N-(7-{[trans-3-fluoropiperidin-4-yl]oxy}-1-benzofuran-5-yl)benzenesulfonamide hydrochloride] it was 56 nM. Same read-out and setting: as for `COc1ccc(C)cc1S(=O)(=O)Nc1cc(CN2CCNCC2)c2occc2c1` [Example 54, 2-Methoxy-5-methyl-N-[7-(piperazin-1-ylmethyl)-1-benzofuran-5-yl]benzenesulfonamide hydrochloride], the figure is 17.4 nM. Still for that read-out and setting: as for `Cc1cccc(S(=O)(=O)Nc2cc(O[C@@H]3CCNC[C@H]3F)c3occc3c2)c1` (relative stereo) [Example 89, N-(7-{[trans-3-Fluoropiperidin-4-yl]oxy}-1-benzofuran-5-yl)-3-methylbenzenesulfonamide hydrochloride], the figure is 14 nM; as for `O=S(=O)(Nc1cc(O[C@H]2CCNC[C@H]2F)c2occc2c1)c1ccccc1C(F)(F)F` (relative stereo) [Example 86, N-(7-{[cis-3-Fluoropiperidin-4-yl]oxy}-1-benzofuran-5-yl)-2-(trifluoromethyl)benzenesulfonamide hydrochloride], 7 nM. With `CCN1CCC[C@@H]1CNc1cc(NS(=O)(=O)c2ccccc2C(F)(F)F)cc2ccoc12` [Example 67, N-[7-({[(2R)-1-Ethylpyrrolidin-2-yl]methyl}amino)-1-benzofuran-5-yl]-2-(trifluoromethyl)benzenesulfonamide hydrochloride], the Ki was 13 nM. On to `COc1ccc(C)cc1S(=O)(=O)Nc1cc(O[C@@H]2CCNC[C@H]2F)c2occc2c1` (relative stereo) [Example 85, N-(7-{[trans-3-Fluoropiperidin-4-yl]oxy}-1-benzofuran-5-yl)-2-methoxy-5-methylbenzenesulfonamide hydrochloride], for which the Ki was 7 nM. Still for that read-out and setting: as for `COc1ccc(C)cc1NS(=O)(=O)c1cc(CN2CCNC(C)C2)c2occc2c1` (stereo not shown) [Example 92, N-(2-Methoxy-5-methylphenyl)-7-[(3-methylpiperazin-1-yl)methyl]-1-benzofuran-5-sulfonamide hydrochloride], the figure is 5.56 nM.

The experiment is the same for the next values; noted with them: over three experiments.
For the molecule `NCCc1c[nH]c2ccc(O)cc12` [Example 5-HT, 5-hydroxytryptamine, reference compound], the Hill coefficient was 0.94 (SD 0.09).
